± gives the standard deviation of the averaged measurements.
Experiments:
Experiment in all cases: relative viability vs DMSO control (72 h) (fraction); higher = more viable cells
SW684 = test system: SW684
How it was run: (§1)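 Plates held 72 h at 37 °C and 5% CO2 contained sarcoma cell lines seeded in 384-well format to reach 80–90% confluence, plus 2.5 µl of serially diluted compound added after 24 h. Source plate concentrations ran from 10 mM to 0.0002 mM, with 0.1% DMSO as vehicle and a 5 µM positive control. Percent growth from ATPLite readings, averaged over up to triplicate wells, gave relative viability. Values were rescaled with 1 as full and 0 as none.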

RD-ES = test system: RD-ES
How it was run: as §1

SYO-1 = test system: SYO-1
How it was run: as §1

KHOS-NP = test system: KHOS-NP
How it was run: as §1

HT1080 = test system: HT1080
How it was run: as §1

CC(C)(O)CNc1nc(Nc2ccnc(C(F)(F)F)c2)nc(-c2cccc(C(F)(F)F)n2)n1 [Enasidenib]
relative viability
Conditions | HT1080 | KHOS-NP | RD-ES | SW684 | SYO-1
0.00017 µM | 1.07 ± 0.02 | 1.09 ± 0.014 | 0.965 ± 0.021 | 1.22 ± 0.055 | 0.969 ± 0.075
0.00051 µM | 1.076 ± 0.0082 | 1.1 ± 0.021 | 1 ± 0.038 | 1.21 ± 0.042 | 0.959 ± 0.05
0.00152 µM | 1.08 ± 0.047 | 1.091 ± 0.0079 | 1.02 ± 0.029 | 1.18 ± 0.048 | 0.987 ± 0.067
0.00457 µM | 1.07 ± 0.021 | 1.09 ± 0.024 | 1.01 ± 0.021 | 1.179 ± 0.0052 | 0.982 ± 0.026
0.01372 µM | 1.042 ± 0.0035 | 1.08 ± 0.019 | 1.012 ± 0.0096 | 1.19 ± 0.016 | 0.973 ± 0.043
0.04115 µM | 1.064 ± 0.0088 | 1.08 ± 0.033 | 0.9861 ± 0.0037 | 1.2 ± 0.035 | 0.992 ± 0.066
0.1235 µM | 1.05 ± 0.035 | 1.08 ± 0.046 | 1.01 ± 0.014 | 1.2 ± 0.015 | 0.996 ± 0.056
0.3704 µM | 1.1 ± 0.027 | 1.06 ± 0.03 | 1.02 ± 0.064 | 1.17 ± 0.047 | 0.979 ± 0.059
1.111 µM | 1.16 ± 0.068 | 1.04 ± 0.03 | 1.01 ± 0.052 | 1.21 ± 0.031 | 0.624 ± 0.61
3.333 µM | 1.11 ± 0.033 | 1.06 ± 0.044 | 1.02 ± 0.049 | 1.11 ± 0.018 | 0.968 ± 0.096
10 µM | 0.978 ± 0.01 | 1.05 ± 0.021 | 1 ± 0.08 | 1.01 ± 0.027 | 0.828 ± 0.031

COC(=O)N[C@@H](C)CNc1nccc(-c2cn(C(C)C)nc2-c2cc(Cl)cc(NS(C)(=O)=O)c2F)n1 [Encorafenib]
relative viability
Conditions | HT1080 | KHOS-NP | RD-ES | SW684 | SYO-1
0.00017 µM | 1.06 ± 0.04 | 1.01 ± 0.033 | 0.93 ± 0.049 | 0.979 ± 0.012 | 0.988 ± 0.052
0.00051 µM | 1.09 ± 0.035 | 1.01 ± 0.015 | 0.95 ± 0.024 | 1 ± 0.019 | 0.992 ± 0.019
0.00152 µM | 1.07 ± 0.018 | 1.03 ± 0.034 | 0.973 ± 0.03 | 1.04 ± 0.036 | 0.972 ± 0.019
0.00457 µM | 1.08 ± 0.063 | 1.02 ± 0.031 | 0.956 ± 0.01 | 1.04 ± 0.058 | 0.985 ± 0.038
0.01372 µM | 1.09 ± 0.027 | 1.01 ± 0.042 | 0.935 ± 0.049 | 1.04 ± 0.037 | 1.003 ± 0.0047
0.04115 µM | 1.08 ± 0.03 | 0.99 ± 0.063 | 0.94 ± 0.046 | 1.04 ± 0.056 | 0.997 ± 0.035
0.1235 µM | 1.06 ± 0.034 | 1.03 ± 0.018 | 0.905 ± 0.04 | 1.05 ± 0.04 | 1.018 ± 0.0075
0.3704 µM | 1.08 ± 0.048 | 0.984 ± 0.067 | 0.91 ± 0.048 | 1.01 ± 0.055 | 1.02 ± 0.03
1.111 µM | 0.885 ± 0.051 | 0.851 ± 0.069 | 0.707 ± 0.011 | 0.943 ± 0.065 | 0.988 ± 0.038
3.333 µM | 0.715 ± 0.035 | 0.528 ± 0.027 | 0.462 ± 0.019 | 0.824 ± 0.031 | 0.877 ± 0.051
10 µM | 0.765 ± 0.076 | 0.435 ± 0.024 | 0.565 ± 0.059 | 0.834 ± 0.096 | 0.818 ± 0.051

CN1CCN(c2ccc(C(=O)Nc3n[nH]c4ccc(Cc5cc(F)cc(F)c5)cc34)c(NC3CCOCC3)c2)CC1 [Entrectinib]
relative viability
Conditions | HT1080 | KHOS-NP | RD-ES | SW684 | SYO-1
0.00017 µM | 1.095 ± 0.0097 | 1.08 ± 0.016 | 0.991 ± 0.016 | 1.14 ± 0.056 | 1.03 ± 0.036
0.00051 µM | 1.13 ± 0.025 | 1.1 ± 0.036 | 1.02 ± 0.044 | 1.17 ± 0.018 | 0.998 ± 0.031
0.00152 µM | 1.1 ± 0.031 | 1.07 ± 0.039 | 0.986 ± 0.021 | 1.14 ± 0.029 | 1.02 ± 0.037
0.00457 µM | 1.08 ± 0.015 | 1.08 ± 0.011 | 0.986 ± 0.018 | 1.2 ± 0.041 | 0.953 ± 0.025
0.01372 µM | 1.08 ± 0.026 | 1.06 ± 0.022 | 0.992 ± 0.027 | 1.15 ± 0.039 | 0.979 ± 0.022
0.04115 µM | 1.09 ± 0.07 | 1.05 ± 0.031 | 0.997 ± 0.022 | 1.15 ± 0.046 | 0.948 ± 0.027
0.1235 µM | 1.08 ± 0.0091 | 1.04 ± 0.013 | 0.99 ± 0.011 | 1.16 ± 0.021 | 0.925 ± 0.022
0.3704 µM | 1.06 ± 0.026 | 1.03 ± 0.013 | 0.929 ± 0.023 | 1.12 ± 0.045 | 0.851 ± 0.018
1.111 µM | 1.06 ± 0.021 | 1.01 ± 0.017 | 0.776 ± 0.044 | 1.1 ± 0.086 | 0.765 ± 0.0029
3.333 µM | 0.952 ± 0.034 | 0.98 ± 0.044 | 0.552 ± 0.029 | 0.971 ± 0.017 | 0.529 ± 0.025
10 µM | 0.349 ± 0.045 | 0.602 ± 0.056 | 0.0781 ± 0.017 | -0.0109 ± 0.0017 | -0.0142 ± 0.0039

Cn1cc(C2=C(c3cn(C4CCN(Cc5ccccn5)CC4)c4ccccc34)C(=O)NC2=O)c2ccccc21 [Enzastaurin]
relative viability
Conditions | HT1080 | KHOS-NP | RD-ES | SW684 | SYO-1
0.00017 µM | 1.14 ± 0.047 | 1.12 ± 0.033 | 0.992 ± 0.013 | 1.17 ± 0.043 | 1.04 ± 0.017
0.00051 µM | 1.14 ± 0.024 | 1.13 ± 0.024 | 0.997 ± 0.019 | 1.18 ± 0.04 | 1.016 ± 0.0091
0.00152 µM | 1.11 ± 0.019 | 1.12 ± 0.014 | 1 ± 0.022 | 1.22 ± 0.0084 | 0.999 ± 0.044
0.00457 µM | 1.11 ± 0.073 | 1.131 ± 0.0071 | 1.01 ± 0.027 | 1.18 ± 0.038 | 0.9983 ± 0.0017
0.01372 µM | 1.12 ± 0.055 | 1.14 ± 0.0042 | 0.996 ± 0.036 | 1.2 ± 0.039 | 0.971 ± 0.025
0.04115 µM | 1.14 ± 0.036 | 1.12 ± 0.012 | 1.01 ± 0.025 | 1.17 ± 0.12 | 0.989 ± 0.022
0.1235 µM | 1.14 ± 0.039 | 1.13 ± 0.017 | 1.01 ± 0.03 | 1.17 ± 0.025 | 0.959 ± 0.04
0.3704 µM | 1.11 ± 0.022 | 1.12 ± 0.04 | 0.981 ± 0.015 | 1.18 ± 0.054 | 0.983 ± 0.046
1.111 µM | 1.15 ± 0.033 | 1.11 ± 0.013 | 1.02 ± 0.0073 | 1.11 ± 0.029 | 1.01 ± 0.021
3.333 µM | 1.37 ± 0.071 | 1.1 ± 0.024 | 1.02 ± 0.033 | 0.956 ± 0.031 | 0.96 ± 0.026
10 µM | 1.365 ± 0.0037 | 1.1 ± 0.041 | 1.04 ± 0.033 | 0.944 ± 0.038 | 0.929 ± 0.025

Source: the supplement of paper PMC10883282
